Data as given in patent publication US5631401A, “Inhibitors of protein farnesyltransferase and squalene synthase” (Abbott Laboratories, priority 1995, dated 1997).

What was measured:
[1] = biological target: T1, Rat brain protein farnesyltransferase (Rattus norvegicus, UniProt Q02293+Q04631); test: In vitro inhibition of protein farnesyltransferase (biotin-lamin substrate, scintillation proximity assay); assay type: biochemical; details: for inhibition at 1 µM: 1 μM (footnote *), read-out: % Inhibition at 1 μM (protein farnesyltransferase, values marked *); for inhibition at 10 µM: compared to uninhibited control
T1 construct: The enzyme was purified according to Reiss, Y., et al., Cell, 62: 81-88 (1990), utilizing steps one through three; from tissue; host or cells: rat brain
Experimental: In vitro inhibition of protein farnesyltransferase may be measured by the following procedure. (Procedures for determination of the inhibition of farnesylation of the oncogene protein Ras are described by Goldstein, et al., J. Biol. Chem., 266: 15575-15578 (1991) and by Singh in U.S. Pat. No. 5,245,061 both of which are incorporated herein by reference.)
Rat brain protein farnesyltransferase activity was measured using the biotin-lamin substrate (which is known to undergo farnesylation in a manner analogous to Ras protein) and radioactive farnesyl diphosphate provided by Amersham Life Science in their commercial scintillation proximity assay kit for the determination of farnesyltransferase. The enzyme was purified according to Reiss, Y., et al., Cell, 62: 81-88 (1990), utilizing steps one through three. The specific activity of the enzyme was approximately 10 nmol substrate farnesylated/mg enzyme/hour. […]

[2] = biological target: T2, Rat liver microsomal squalene synthase (Rattus norvegicus, UniProt Q02769); test: In vitro inhibition of squalene synthase (rat liver microsomes, 3H-farnesyl diphosphate); assay type: biochemical; details: for inhibition at 1 µM: compared to controls with no test compound; for inhibition at 10 µM: 10 μM (footnote *), read-out: % Inhibition at 10 μM (squalene synthase, values marked *)
T2 construct: Rat liver microsomes, the source of enzyme, were prepared; from tissue; host or cells: rat liver microsomes
T2 sequence (Q02769 1-416): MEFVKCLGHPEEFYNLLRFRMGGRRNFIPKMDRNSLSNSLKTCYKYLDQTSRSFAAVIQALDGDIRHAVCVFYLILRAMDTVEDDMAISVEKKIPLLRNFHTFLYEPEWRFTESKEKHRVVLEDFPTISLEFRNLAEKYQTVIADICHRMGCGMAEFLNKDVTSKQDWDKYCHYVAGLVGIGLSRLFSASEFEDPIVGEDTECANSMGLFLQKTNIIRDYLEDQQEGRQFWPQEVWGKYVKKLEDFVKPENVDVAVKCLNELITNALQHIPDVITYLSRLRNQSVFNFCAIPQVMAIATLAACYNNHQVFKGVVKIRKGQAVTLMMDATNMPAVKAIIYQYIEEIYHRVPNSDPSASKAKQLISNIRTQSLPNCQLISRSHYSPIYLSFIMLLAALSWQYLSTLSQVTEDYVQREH
Experimental: In vitro inhibition of squalene synthase may be measured by the following procedure.
Rat liver microsomal squalene synthase activity was measured using radioactive farnesyl diphosphate as a substrate and quantitating squalene synthesis by counting the radioactive squalene formed.
Rat liver microsomes, the source of enzyme, were prepared according to the method of Gillies, P. J., et al., Exp. Molec. Pathol. 44: 329-339 (1986), a modification of the procedure of Erickson, S. K., and Cooper, A. D., Metabolism, 29: 991-996 (1980). Approximately 30 μg of microsomal protein was incubated for 10 minutes at 37° C. with 11 μM of ^3 H-farnesyl diphosphate, 49 mCi/mmol, and test compound in the presence of squalene (2 μL), Mg^++, KF, reduced B-nicotinamide adenine dinucleotide phosphate, dithiothreitol, and K2 PO4, pH 7.35, in a total volume of 200 μL. Oxygen was excluded from the closed incubation tube by degassing with nitrogen. The reaction was terminated by the addition of ethanolic KOH and after degassing with N2, the microsomal membranes were solubilized by heating at 60° C. for 30 minutes. The squalene was extracted into hexane, and the squalene was separated from all other radioactive molecules by passage over an activated alumina column. The solution was collected in scintillation vials, evaporated to dryness, liquid scintillation fluid was added, and the radioactivity was determined in a liquid scintillation counter. […]

| Compound | inhibition at 1 µM [1] | inhibition at 1 µM [2] | inhibition at 10 µM [1] | inhibition at 10 µM [2] |
| --- | --- | --- | --- | --- |
| CCCN(Cc1ccc(Oc2ccccc2)cc1)C(=O)[C@H]1[C@H](C(=O)O)[C@H](C(=O)N(Cc2ccccc2)Cc2ccc(Oc3ccccc3)cc2)[C@H]1C(=O)O (relative stereo) [Example 40, (1α,2β,3β,4α)-1-[N-Propyl-N-(4-phenoxybenzyl)aminocarbonyl]-3-[N-benzyl-N-(4-phenoxybenzyl)aminocarbonyl]cyclobutane-2,4-dicarboxylic acid] | 94% | 49% |  |  |
| CN(Cc1ccc(Oc2ccccc2)cc1)C(=O)[C@H]1[C@H](C(=O)O)[C@H](C(=O)N(C)Cc2ccc(Oc3ccccc3)cc2)[C@H]1C(=O)O [Example 14, (1α,2β,3β,4α)-1,3-Di[N-methyl-N-(4-phenoxybenzyl)aminocarbonyl]cyclobutane-2,4-dicarboxylic acid] |  | 47% | 34% |  |
| CN(Cc1ccc(OCc2ccccc2)cc1)C(=O)[C@H]1[C@H](C(=O)O)[C@H](C(=O)N(C)Cc2ccc(OCc3ccccc3)cc2)[C@H]1C(=O)O [Example 15, (1α,2β,3β,4α)-1,3-Di[N-methyl-N-(4-benzyloxybenzyl)aminocarbonyl]cyclobutane-2,4-dicarboxylic acid] |  |  | 45% | 26% |
| O=C(O)[C@H]1[C@H](C(=O)N(Cc2ccccc2)Cc2ccc(Oc3ccccc3)cc2)[C@H](C(=O)O)[C@H]1C(=O)N(Cc1ccccc1)Cc1ccc(Oc2ccccc2)cc1 [Example 16, (1α,2β,3β,4α)-1,3-Di[N-benzyl-N-(4-phenoxybenzyl)aminocarbonyl]cyclobutane-2,4-dicarboxylic acid] |  | 25% | 98% |  |
| CCN(Cc1ccc(Oc2ccccc2)cc1)C(=O)[C@H]1[C@H](C(=O)O)[C@H](C(=O)N(CC)Cc2ccc(Oc3ccccc3)cc2)[C@H]1C(=O)O [Example 17, (1α,2β,3β,4α)-1,3-Di(N-ethyl-N-(4-phenoxybenzyl)aminocarbonyl)cyclobutane-2,4-dicarboxylic acid] |  | 52% | 49% |  |
| CCCN(Cc1ccc(Oc2ccccc2)cc1)C(=O)[C@H]1[C@H](C(=O)O)[C@H](C(=O)N(CCC)Cc2ccc(Oc3ccccc3)cc2)[C@H]1C(=O)O [Example 18, (1α,2β,3β,4α)-1,3-Di(N-propyl-N-(4-phenoxybenzyl)aminocarbonyl)cyclobutane-2,4-dicarboxylic acid] |  |  | 55% | 89% |
| O=C(O)[C@H]1[C@H](C(=O)N(Cc2ccc(Oc3ccccc3)cc2)Cc2ccc(Oc3ccccc3)cc2)[C@H](C(=O)O)[C@H]1C(=O)N(Cc1ccc(Oc2ccccc2)cc1)Cc1ccc(Oc2ccccc2)cc1 [Example 20, (1α,2β,3β,4α)-1,3-Di(N,N-di(4-phenoxybenzyl)aminocarbonyl)cyclobutane-2,4-dicarboxylic acid] |  |  |  | 41% |
| CN(c1ccc(-c2ccccc2)cc1)C(=O)[C@H]1[C@H](C(=O)O)[C@H](C(=O)N(C)c2ccc(-c3ccccc3)cc2)[C@H]1C(=O)O [Example 23, (1α,2β,3β,4α)-1,3-Di(N-methyl-N-biphenylaminocarbonyl)cyclobutane-2,4-dicarboxylic acid] |  |  |  | 25% |
| O=C(O)[C@H]1[C@H](C(=O)N(Cc2ccc(Oc3ccccc3)cc2)Cc2ccc3oc4ccccc4c3c2)[C@H](C(=O)O)[C@H]1C(=O)N(Cc1ccc(Oc2ccccc2)cc1)Cc1ccc2oc3ccccc3c2c1 [Example 95, (1α,2β,3β,4α)-1,3-Di[N-(dibenzofuran-2-ylmethyl)-N-(4-phenoxybenzyl)aminocarbonyl]cyclobutane-2,4-dicarboxylic acid] |  |  | 55% |  |
| C[C@H](c1cccc2ccccc12)N(Cc1ccc(Oc2ccccc2)cc1)C(=O)[C@H]1[C@H](C(=O)O)[C@H](C(=O)N(Cc2ccc(Oc3ccccc3)cc2)[C@H](C)c2cccc3ccccc23)[C@H]1C(=O)O [Example 96, (1α,2β,3β,4α)-1,3-Di[N-((2R)-2-(1-naphthyl)eth-2-yl) -N-(4-phenoxybenzyl)aminocarbonyl]cyclobutane-2,4-dicarboxylic acid] | 71% |  |  |  |
